The text below walks through data of publication PMC7712530 (Nucleosides, nucleotides & nucleic acids, 2015).

Data set [1] concerns HBV. Conditions: relative to entecavir 1; ref 3a; cited from earlier work.
A further data set relates to MT-4 cells. Nature of the data set: Cytotoxicity assay. The following applies: for cytotoxicity (in words): text: toward HepG2 cells, table head and method say MT-4. The format is cell-based.
Data set [2] has as its system HBV. Nature of the data set: Anti-HBV assay in HepG2 2.2.15 cells. The format is cell-based. The following applies: for EC50: Hepatitis B virus, HepG2 2.2.15, 144 h, read-out: EC50 anti-HBV activity.

`Nc1nc2c(ncn2[C@H]2C[C@@H](CO)[C@H](O)C2)c(=O)[nH]1` [carbocyclic dG]: in the data set on HBV [1], the “potency, times less than that of entecavir (1)” value is reported as 10 times.
As a reminder, the EC50 is the concentration at which the effect is half-maximal. Turning to `C=C(CCO)Cn1cnc2c(=O)[nH]c(N)nc21` [Compound 6, 2-Amino-9-(4-hydroxy-2-methylenebutyl)-1H-purin-6(9H)-one], the “cytotoxicity (in words)” value with MT-4 cells was “nor display any cytotoxicity”. For the same compound, the “anti-HBV activity (in words)” value in the data set on HBV [2] (HepG2 2.2.15 cells) is given as “neither exhibit anti-HBV activity”. In addition, the 50% effective concentration (EC50) with HBV [2] is greater than 1000 nM.
Take `CC(C)(C)C(=O)O` [pivalic acid, reference compound]: the “concentration up to which no cytotoxicity was shown” value in the data set on MT-4 cells (in this assay system) is greater than 100 µM.
`C=C1[C@H](CO)[C@@H](O)C[C@@H]1n1cnc2c(=O)[nH]c(N)nc21` [Entecavir, entecavir, reference compound]: the concentration giving a half-maximal response (EC50) with HBV [2] was found to be 0.77 nM.
“9-[Bis-O-(pivaloyoxymethyl)phosphorylmethoxy]allyl]guanine [Compound 8]”: the “cytotoxicity (in words)” value in the data set on MT-4 cells was “cytotoxicity toward HepG2 cells was also observed”.
